Assays:
Format in all cases: cell-based
[1] = test system: Human PMN cells; assay: PMN chemotactic migration towards FMLP, Boyden chamber
Description: Since ICAM-1 is involved in cell migration, cell migration towards a chemotactic peptide was studied in cells treated with Compound I and STI. Human PMN cells were placed in one side of a Boyden chamber, using standard techniques, and a chemotactic peptide (FMLP) was placed in the other chamber. Cells were allowed to migrate into the second chamber, and the number of migrating cells per field and distance of migration were calculated. The experiment was repeated with PMN cells pretreated with one of the following: 5 or 0.5 mg/ml STI, 1 or 0.1 μM Compound I, a buffer vehicle, and with and without chemotactic peptide. The number of cells per field that migrated the same distance as the untreated control was measured. Without the peptide and with no treatment, an average of 19 cells/field were migrating a distance of 80 microns. […] In other words, no cells (or less than 5/field) were identified at 115 microns. […] The ability to inhibit PMN migration is an important constituent of anti-inflammatory compounds.

[2] = test system: monolayer keratinocyte/melanocyte co-cultures; assay: Pigmentation in monolayer keratinocyte/melanocyte co-cultures (K-M contact); details: keratinocyte-melanocyte contact
Description: (§1) Since PAR-2 is expressed in keratinocytes, but not in melanocytes, the possible requirement of keratinocyte-melanocyte contact was tested for the effect of Compound I and SLIGRL on melanosome phagocytosis by the keratinocytes. Primary melanocyte cultures (commercially available from Clonetics, San Diego) were plated under epidermal equivalents (EpiDerm, of MatTek, Ashland, Mass.) to create an equivalent-monolayer co-culture with no contact between keratinocytes and melanocytes. These co-cultures were compared to MelanoDerm equivalents (of MatTek), where melanocytes are present in the basal layer of the equivalent. Cultures were treated with Compound I, with the […], and with the PAR-2 agonist SLIGRL. As set forth in Table 3, keratinocytes are indicated by “K”, melanocytes are indicated by “M”, and lack of keratinocyte-melanocyte contact is indicated as “no K-M cont”. […] The same result was also observed with monolayer keratinocyte/melanocyte co-cultures having keratinocyte/melanocyte contact.

[3] = test system: melanocyte cultures plated under epidermal equivalents (EpiDerm); assay: Pigmentation in equivalent-monolayer co-culture (no K-M contact); details: no keratinocyte-melanocyte contact
Description: as §1

[4] = test system: MelanoDerm equivalents; assay: Pigmentation in melanocyte-containing epidermal equivalents; details: keratinocyte-melanocyte contact
Description: as §1

| Substance | Migration (distance) ([1]; buffer without peptide: 80 μ) [μ] | Cells/Field ([1]; cells counted at 115 microns, PMN pretreated with 5 or 0.5 mg/ml STI or 1 or 0.1 μM Compound I, buffer without FMLP: 19 at 80 μ) [cells/field] | level of pigmentation, Mono-Layer Co-Cultures (K-M cont.) [2] | level of pigmentation, Equivalent Monolayer Co-culture (no K-M cont.) [3] | level of pigmentation, Epidermal Equivalents (K-M cont.) [4] |
| --- | --- | --- | --- | --- | --- |
| FMLP [reference compound] | 115 | 41 |  |  |  |
| TFLLRNPNDK [printed as PAR-2 agonist] |  |  | no effect | no effect | no effect |

Source: patent publication US20020197244A1, “Compositions and methods for regulating phagocytosis and ICAM-1 expression” (priority 1998, published 2002)
